# In ChEMBL document CHEMBL1154460, “Tryptophan-containing dipeptide derivatives as potent PPARgamma antagonists: design, synthesis, biological evaluation, and molecular modeling” (Eur J Med Chem, 2008):
# Activity calls are given as the source filed them. The calls are words filed in the database; no cut-off is given here. Non-standard residues stand in square brackets, D forms with d. Residues, ends and D or L forms follow the SMILES beside them. *: point of attachment. 2Nal = N[C@@H](Cc1ccc2ccccc2c1)C(=O)O; Aad = N[C@@H](CCCC(=O)O)C(=O)O; OBn = c1ccc(CO*)cc1
# Assays:
# [1] = molecular target: T1, Peroxisome proliferator-activated receptor gamma (Homo sapiens, UniProt P37231); assay: Antagonist activity at human PPARgamma receptor expressed in Saccharomyces cerevisiae AH109 co-transfected with mouse CBP assessed as inhibition of rosiglitazone-induced LBD-CBP interaction by alpha-galactosidase based yeast two hybrid assay; type: functional
# T1 sequence (P37231 whole entry): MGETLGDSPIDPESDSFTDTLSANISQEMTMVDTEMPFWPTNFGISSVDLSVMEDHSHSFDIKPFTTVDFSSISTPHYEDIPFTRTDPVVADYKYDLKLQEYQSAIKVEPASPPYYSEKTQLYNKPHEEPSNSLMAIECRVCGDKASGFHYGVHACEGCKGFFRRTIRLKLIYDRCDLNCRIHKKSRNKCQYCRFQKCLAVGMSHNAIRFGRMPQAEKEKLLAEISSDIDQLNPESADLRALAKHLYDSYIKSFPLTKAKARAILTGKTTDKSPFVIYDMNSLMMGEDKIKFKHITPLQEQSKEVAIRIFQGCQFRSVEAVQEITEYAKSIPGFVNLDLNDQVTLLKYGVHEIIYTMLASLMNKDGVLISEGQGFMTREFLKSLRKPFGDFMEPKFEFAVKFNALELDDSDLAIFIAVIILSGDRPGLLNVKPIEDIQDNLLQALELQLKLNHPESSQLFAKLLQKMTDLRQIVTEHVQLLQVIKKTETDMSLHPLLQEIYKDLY
# [2] = molecular target: T2, Peroxisome proliferator-activated receptor gamma (Homo sapiens) (UniProt P37231); assay: Antagonist activity at human PPARgamma receptor expressed in Saccharomyces cerevisiae AH109 co-transfected with mouse CBP assessed as inhibition of rosiglitazone-induced LBD-CBP interaction at 10 uM by alpha-galactosidase based yeast two hybrid assay; type: functional
# T2 sequence (whole entry): T1 sequence (P37231 whole entry)
Structure (SMILES),IC50 [1] [µM],inhibition [2]
CC(C)(c1ccc(OCC2CO2)cc1)c1ccc(OCC2CO2)cc1 (configuration not stated),100,
O=C(Nc1ccccc1)c1cc([N+](=O)[O-])ccc1Cl,3.3,
O=C(O)C(Oc1cccc(C(F)(F)F)c1)c1ccc(Cl)cc1 (configuration not stated),0.22,
C=CCn1cc([N+](=O)[O-])s/c1=N\C(=O)C(C)(C)C,0.82,
N[C@@H](Cc1c[nH]c2ccccc12)C(=O)N[C@@H](CC(=O)O)C(=O)O,5.2,57.8%
N[C@@H](Cc1c[nH]c2ccccc12)C(=O)N[C@H](CC(=O)O)C(=O)O,,15.5%
N[C@@H](Cc1c[nH]c2ccccc12)C(=O)N[C@H](CCC(=O)OCc1ccccc1)C(=O)OCc1ccccc1,,inactive
N[C@H](Cc1c[nH]c2ccccc12)C(=O)N[C@@H](CC(=O)O)C(=O)O,,0.68%
N[C@H](Cc1c[nH]c2ccccc12)C(=O)N[C@H](CC(=O)O)C(=O)O,,0.42%
N[C@@H](Cc1ccccc1)C(=O)N[C@@H](CC(=O)OCc1ccccc1)C(=O)OCc1ccccc1 (H-Phe-Asp(OBn)-OBn),,inactive
N=C(N)NCCC[C@H](NC(=O)[C@@H](N)Cc1c[nH]c2ccccc12)C(=O)O (H-Trp-Arg-OH),15.4,45%
NC(=O)C[C@H](NC(=O)[C@@H](N)Cc1c[nH]c2ccccc12)C(=O)O (H-Trp-Asn-OH),18.4,36.3%
N[C@@H](Cc1c[nH]c2ccccc12)C(=O)N[C@@H](CC(=O)OCc1ccccc1)C(=O)OCc1ccccc1 (H-Trp-Asp(OBn)-OBn),,5.33%
CC(C)C[C@H](NC(=O)[C@@H](N)Cc1c[nH]c2ccccc12)C(=O)OCc1ccccc1 (H-Trp-Leu-OBn),,inactive
CC(C)C[C@H](NC(=O)[C@@H](N)Cc1c[nH]c2ccccc12)C(=O)O (H-Trp-Leu-OH),25.8,58.2%
N[C@@H](Cc1ccc2ccccc2c1)C(=O)N[C@@H](CCC(=O)OCc1ccccc1)C(=O)OCc1ccccc1 (H-[2Nal]-Glu(OBn)-OBn),,27.7%
CC(=O)NCCOC(=O)C(Oc1cccc(C(F)(F)F)c1)c1ccc(Cl)cc1 (configuration not stated) [HALOFENATE],40,
COP(=O)(OC)OC(c1ccc(Cl)cc1)P(=O)(OC)OC (configuration not stated) [MIFOBATE],140,

# Other lines, results leading:
IC50 [1] [µM],inhibition [2],Structure (SMILES)
8.67,43.2%,N[C@@H](Cc1c[nH]c2ccccc12)C(=O)N[C@@H](CCC(=O)O)C(=O)O
,inactive,COC(=O)CCC[C@H](NC(=O)[C@H](N)Cc1ccccc1)C(=O)OC
,inactive,COC(=O)CC[C@@H](NC(=O)[C@@H](N)Cc1c[nH]c2ccccc12)C(=O)OC
,4.05%,COC(=O)CC[C@H](NC(=O)[C@@H](N)Cc1c[nH]c2ccccc12)C(=O)OC
,3.99%,COC(=O)CC[C@H](NC(=O)[C@@H](N)Cc1ccccc1)C(=O)OC
,inactive,COC(=O)CC[C@H](NC(=O)[C@H](N)Cc1ccccc1)C(=O)OC
,inactive,COC(=O)C[C@H](NC(=O)[C@H](N)Cc1ccccc1)C(=O)OC
,inactive,COC(=O)[C@H](C)NC(=O)[C@@H](N)Cc1ccccc1
,inactive,COC(=O)[C@H](CC(C)C)NC(=O)[C@H](N)Cc1ccccc1
,0.4%,N[C@@H](Cc1c[nH]c2ccccc12)C(=O)N[C@H](CCC(=O)O)C(=O)O
,1.12%,N[C@@H](Cc1ccccc1)C(=O)N[C@@H](CC(=O)O)C(=O)O (H-Phe-Asp-OH)
,inactive,N[C@@H](Cc1ccccc1)C(=O)N[C@@H](CCC(=O)OCc1ccccc1)C(=O)OCc1ccccc1 (H-Phe-Glu(OBn)-OBn)
,4.3%,N[C@@H](Cc1ccccc1)C(=O)N[C@@H](CCC(=O)O)C(=O)O (H-Phe-Glu-OH)
,inactive,COC(=O)C[C@H](NC(=O)[C@@H](N)Cc1c[nH]c2ccccc12)C(=O)OC (H-Trp-Asp(OMe)-OMe)
18.7,38.6%,NC(=O)CC[C@H](NC(=O)[C@@H](N)Cc1c[nH]c2ccccc12)C(=O)O (H-Trp-Gln-OH)
,5.29%,COC(=O)[C@H](CC(C)C)NC(=O)[C@@H](N)Cc1c[nH]c2ccccc12 (H-Trp-Leu-OMe)
,8.74%,COC(=O)CCC[C@H](NC(=O)[C@@H](N)Cc1c[nH]c2ccccc12)C(=O)OC (H-Trp-[Aad](OMe)-OMe)
15.1,70%,N[C@@H](Cc1c[nH]c2ccccc12)C(=O)N[C@@H](CCCC(=O)O)C(=O)O (H-Trp-[Aad]-OH)
,5.26%,COC(=O)CC[C@H](NC(=O)[C@@H](N)Cc1ccc(OC)cc1)C(=O)OC (H-Tyr(Me)-Glu(OMe)-OMe)
,14.7%,COC(=O)CC[C@H](NC(=O)[C@@H](N)Cc1ccc2ccccc2c1)C(=O)OC (H-[2Nal]-Glu(OMe)-OMe)
,2.1%,N[C@@H](Cc1ccc2ccccc2c1)C(=O)N[C@@H](CCC(=O)O)C(=O)O (H-[2Nal]-Glu-OH)
,4.34%,COC(=O)[C@H](CC(C)C)NC(=O)[C@@H](N)Cc1ccc2ccccc2c1 (H-[2Nal]-Leu-OMe)
